According to US10438128B2, “Treatment of autoimmune and inflammatory diseases with the arsenic compounds AS2O3 and/or AS2O5 administered locally” (CENTRE NATIONAL DE LA RECHERCHE SCIENTIFIQUE (CNRS), priority 2013, dated 2019):

Experiments:
MRL/lpr mice [1] = assay: Experiment 3: topical treatment of skin lesions in MRL/lpr mice with As2O5; type: in vivo, mouse; conditions: 0.5 mg/ml
Experimental: Methods: The arsenic compound As2O5 is first dissolved at a high concentration (10 to 15 mg/ml) in distilled water until a clear and colorless solution is obtained. The solution is made sterile and free of particles by filtration on a 0.22 μm filter. The stock As2O5 solution thus obtained is then diluted in phosphate buffer or sterile physiological saline so as to obtain a concentration between 0.5 mg/ml for use in vivo. The stock solution of the arsenic compound As2O5 is preserved for 1 to 3 months in the refrigerator (4° C.), while the dilute solution is preserved for only 5 days at 4° C. and away from light.
MRL/lpr mice (12 females and 12 males, 4 to 5 months of age) presenting severe lupus-type skin lesions, and for some cutaneous necrotizing vasculitis (time t0 in FIG. 6), were treated 5 times per week (Monday to Friday), for 8 weeks, by applying on the tissue lesions a compress (or a brush) impregnated with a solution of arsenic As2O5 at concentrations of 0.5 mg/ml. The control animals were mice of the same age and sex treated with the excipient.

[2] = cited from earlier work
[3] = ratio to As2O3; cited from earlier work
MRL/lpr mice [4] = assay: Experiment 4: gradual decrease in number of weekly topical applications of As2O5; type: in vivo, mouse
Experimental: Methods: Severe skin lesions and cutaneous necrotizing vasculitis present at time t0 in 10 MRL/lpr mice 4 to 5 months in age were treated by applying a compress (or a brush) impregnated with a solution of the arsenic compound As2O5 at the concentration of 0.5 mg/ml.

MRL/lpr mice [5] = assay: Experiment 6: local treatment with suboptimal As2O3, As2O5 or the combination; type: in vivo, mouse; conditions: suboptimal 0.12 mg/ml, 5 applications/week, 8 weeks
Experimental: (§1) Methods: MRL/lpr mice (males and females) presenting severe lupus-type skin lesions and cutaneous necrotizing vasculitis were treated 5 times per week, for 8 weeks, by administering an aqueous solution containing either the arsenic compound As2O3 or the compound As2O5 or a mixture of both compounds As2O3+As2O5 or phosphate buffer (PBS) as negative control. Weakly effective doses (suboptimal) of As2O3 or As2O5 were voluntarily used. The arsenic compounds were administered in aqueous form using compresses or a brush for local treatment or an intraperitoneal injection for systemic treatment.
(§2) At the conclusion of the treatment, the blood of each animal was sampled in order to quantify in the serum the levels of autoantibodies (anti-DNA, rheumatoid factor) and cytokines involved in the disease. Skin from the back of each animal was sampled for histological analysis and for analysis of the nature of the inflammatory infiltrate after isolating the cells using enzymatic methods, their counts under the microscope and their analyses by flow cytometry using fluorescent antibodies specific to leukocytes.

MRL/lpr mice [6] = assay: Experiment 6: systemic treatment with suboptimal As2O3, As2O5 or the combination; type: in vivo, mouse; conditions: suboptimal 0.12 mg/ml, 5 times/week, 8 weeks
Experimental: as §1, §2

MRL/lpr mice [7] = assay: Experiment 5: systemic (intraperitoneal) treatment of skin lesions in MRL/lpr mice with As2O5; type: in vivo, mouse
Experimental: Methods: MRL/lpr mice (6 females and 6 males, 4 to 5 months of age) presenting severe lupus-type skin lesions and cutaneous necrotizing vasculitis (time t0 FIGS. 8A and 8B) were treated 5 times per week (Monday to Friday), for 3 or 4 weeks, by intraperitoneal injections of 0.1 ml per 10 g of mouse of a solution of arsenic As2O5 at the concentration of 0.5 mg/ml. The control animals were mice of the same age and sex treated with the excipient.

MRL/lpr mice [8] = assay: Experiment 1: topical treatment of skin lesions in MRL/lpr mice with As2O3; type: in vivo, mouse; conditions: 0.5 mg/ml
Excerpt: MRL/lpr mice spontaneously develop disseminated lupus erythematosus, rheumatoid polyarthritis and Sjögren's syndrome characterized by dermatological, vascular, renal, pulmonary, articular and ocular damage due to lymphoid cell infiltrates. As in man, a strong sexual dimorphism is observed in MRL/lpr mice, the female mice presenting an earlier and more severe pathology than the males and dying earlier. The disease begins around the age of 8 weeks and causes the death of the mice, on average, at around 18 weeks of age for the females and 22 weeks for the males, the average lifespan of a normal mouse being 2 years.
Methods: The solubility of arsenic compounds depends mainly on the pH and oxidation-reduction conditions and the temperature of the excipient. Since the arsenic compound As2O3 is poorly water soluble, it is first dissolved at a high concentration (60 to 70 mg/ml) in dilute alkaline solution (0.5 or 1 M) and gently heated until a clear and colorless solution is obtained. This solution is made free of particles and sterile by filtration on a 0.22 μm filter. The stock As2O3 solution thus obtained is then diluted in phosphate buffer or sterile physiological saline at the concentration varying from 0.5 mg/ml for use in vivo. The stock solution of the arsenic compound As2O3 is preserved from 1 to 3 months in the refrigerator (4° C.), whereas the dilute solution is preserved only 5 days at 4° C. and away from light.
MRL/lpr mice (10 females and 10 males per group, aged 4 to 5 months) presenting severe lupus-type skin lesions, and for some cutaneous necrotizing vasculitis, were treated, 3 or 5 times per week depending on the experiment (from Monday to Friday), for 8 weeks, by application on the tissue lesions of a compress (or a brush) impregnated with arsenic As2O3 solution at concentrations of 0.5 mg/ml. The control animals were mice, of the same age and sex, treated with the excipient.

MRL/lpr mice [9] = assay: Experiment 2: gradual decrease in number of weekly topical applications of As2O3; type: in vivo, mouse
Experimental: Methods: Severe skin lesions and cutaneous necrotizing vasculitis present before treatment (time t0 in FIGS. 3, 4 and 5) in 15 4-month-old MRL/lpr mice were treated by applying a compress (or a brush) impregnated with a solution of the arsenic compound As2O3 at the concentration of 0.5 mg/ml. The number of applications per week varied from 2 to 5 depending on the experiment. Similarly, the total duration of the topical treatment varied from 7 to 32 weeks.

[10] = 20° C.; cited from earlier work

## O=[As](=O)O[As](=O)=O [As2O5, arsenic pentoxide]
MRL/lpr mice [1]
  regrowth of hair (regeneration of lesioned skin tissue): nearly complete regrowth of hair
MRL/lpr mice [1]; 5 applications/week
  destruction of the skin in first week of treatment: ceased
  skin lesions after 4 weeks of treatment: almost disappeared
  time until destruction of skin tissue ceased: less than 2 weeks
MRL/lpr mice [1]; 8 weeks
  undesirable effect (nonspecific immunosuppression, tissue toxicity or premature death): no undesirable effect
[2]
  oral lethal dose for man: 5 to 50 mg/kg
[3]
  toxicity relative to As2O3: about 1/60
MRL/lpr mice [4]; 5 weeks, 1 application/week
  relapse or rebound of the disease at a single application per week: no relapse or rebound
MRL/lpr mice [4]; front-line treatment, 5 applications/week
  time to stop development of tissue lesions: ≤ 2 weeks
MRL/lpr mice [4]; topical, 0.5 mg/ml
  skin lesions after 2 further weeks at 2 applications per week: nearly disappeared
MRL/lpr mice [4]; topical, 0.5 mg/ml, 5 applications/week
  inflammatory skin and vasculitis lesions after 2 weeks: ceased
MRL/lpr mice [4]; topical, schedule reduced from 5 to 1 application/week
  survival after the beginning of the treatment (majority of animals): more than 8 weeks
MRL/lpr mice [5]
  cells in lymphocytic/inflammatory infiltrate of back skin (FIG. 9A): still high number of cells
  inflammatory skin lesions (FIG. 10): presence of severe skin lesions
MRL/lpr mice [6]
  cells in lymphocytic/inflammatory infiltrate of back skin (FIG. 9B): still high number of cells
MRL/lpr mice [7]
  regrowth of hair (regeneration of lesioned skin tissue): nearly complete regrowth of hair
MRL/lpr mice [7]; 0.5 mg/ml solution
  undesirable effect (nonspecific immunosuppression, tissue toxicity or premature death): no undesirable effect
MRL/lpr mice [7]; 0.1 ml per 10 g of 0.5 mg/ml, 5 times/week
  destruction of skin after 3 or 4 weeks of treatment: strongly regressed or even nearly disappeared

## arsenic trioxide [As2O3]
MRL/lpr mice [8]
  regrowth of hair (skin tissue regeneration): nearly complete regrowth of hair
MRL/lpr mice [8]; 3 applications/week, less severe lesions, female mice
  tissue lesions after 8 weeks with 3 weekly applications: significant decrease
MRL/lpr mice [8]; 5 applications/week, 2 weeks
  tissue destruction after 2 weeks of treatment: ceased and even regressed
MRL/lpr mice [8]; 5 applications/week, 8 weeks
  inflammatory skin lesions after 8 weeks of treatment: nearly completely disappear
MRL/lpr mice [8]; 8 weeks
  undesirable effect (nonspecific immunosuppression, tissue toxicity or premature death): No undesirable effect
MRL/lpr mice [9]; 5/week for 4 weeks, then 3/week for 6 weeks, female mouse
  relapse or rebound of the disease after reduced dosing schedule: no relapse or rebound
MRL/lpr mice [9]; 5 applications/week for 2 weeks, then 2/week for 5 weeks
  skin damage after 7 weeks of topical treatment: decreased considerably
MRL/lpr mice [9]; female, 3.5 months old at t0, treated 32 weeks discontinuously
  age reached by treated mouse (euthanized): 1 year
MRL/lpr mice [5]
  cells in lymphocytic/inflammatory infiltrate of back skin (FIG. 9A): still high number of cells
  inflammatory skin lesions (FIG. 10): presence of severe skin lesions
MRL/lpr mice [6]
  cells in lymphocytic/inflammatory infiltrate of back skin (FIG. 9B): still high number of cells
[10]
  solubility in water: 37 g/L
